From PubChem BioAssay AID248 (DTP/NCI, 2004)
Where “and” joins values, the source holds several entries; their conditions need not be identical. Equal entries are not always repeated. Inconclusive results and toxic doses are left out. Rule as the data show it: active = T/C of 150% or more; inactive = T/C below 125%.

Test system: L1210 leukemia ip in BDF1 mice, survival T/C
Assay: NCI In Vivo Anticancer Drug Screen. Data for tumor model L1210 Leukemia (intraperitoneal) in B6D2F1 (BDF1) mice
Details: endpoint: mean survival time, higher = longer survival
Summary of the method: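 Transplantable tumor model; survival measured in treated vs vehicle control mice. Value = treated/control.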

[1] = dose: 75.0 mg/kg/injection, schedule: Q01DX001 (ip), vehicle: carboxymethylcellulose (CMC)
[2] = dose: 100.0 mg/kg/injection, schedule: Q01DX001 (ip), vehicle: carboxymethylcellulose (CMC)
[3] = dose: 150.0 mg/kg/injection, schedule: Q01DX001 (ip), vehicle: carboxymethylcellulose (CMC)
[4] = dose: 200.0 mg/kg/injection, schedule: Q01DX001 (ip), vehicle: carboxymethylcellulose (CMC)
[5] = dose: 400.0 mg/kg/injection, schedule: Q01DX001 (ip), vehicle: carboxymethylcellulose (CMC)
[6] = dose: 25.0 mg/kg/injection, schedule: Q04DX003 (ip), vehicle: saline
[7] = dose: 100.0 mg/kg/injection, schedule: Q01DX001 (ip), vehicle: other
[8] = dose: 200.0 mg/kg/injection, schedule: Q01DX001 (ip), vehicle: other
[9] = dose: 400.0 mg/kg/injection, schedule: Q01DX001 (ip), vehicle: other
[10] = dose: 50.0 mg/kg/injection, schedule: Q01DX009 (ip), vehicle: saline with Tween-80
[11] = dose: 100.0 mg/kg/injection, schedule: Q01DX009 (ip), vehicle: saline with Tween-80
[12] = dose: 100.0 mg/kg/injection, schedule: Q04DX003 (ip), vehicle: saline with Tween-80
[13] = dose: 200.0 mg/kg/injection, schedule: Q04DX003 (ip), vehicle: saline with Tween-80
[14] = dose: 100.0 mg/kg/injection, schedule: Q01DX001 (ip), vehicle: saline
[15] = dose: 100.0 mg/kg/injection, schedule: Q01DX009 (ip), vehicle: Klucel (hydroxypropylcellulose) (HPC)
[16] = dose: 100.0 mg/kg/injection, schedule: Q04DX003 (ip), vehicle: Klucel (hydroxypropylcellulose) (HPC)
[17] = dose: 200.0 mg/kg/injection, schedule: Q01DX009 (ip), vehicle: Klucel (hydroxypropylcellulose) (HPC)
[18] = dose: 200.0 mg/kg/injection, schedule: Q04DX003 (ip), vehicle: Klucel (hydroxypropylcellulose) (HPC)
[19] = dose: 400.0 mg/kg/injection, schedule: Q04DX003 (ip), vehicle: Klucel (hydroxypropylcellulose) (HPC)
[20] = dose: 100.0 mg/kg/injection, schedule: Q04DX003 (ip), vehicle: saline
[21] = dose: 200.0 mg/kg/injection, schedule: Q04DX003 (ip), vehicle: saline
[22] = dose: 400.0 mg/kg/injection, schedule: Q04DX003 (ip), vehicle: saline

Measured: T/C

O=NN1CCN(c2ccccc2)C1=O
inactive: dose: 18.0 mg/kg/injection, schedule: Q01DX001 (ip), vehicle: carboxymethylcellulose (CMC) 94 % of control | dose: 37.0 mg/kg/injection, schedule: Q01DX001 (ip), vehicle: carboxymethylcellulose (CMC) 96 % of control | [1] 102 % of control | [2] 98 % of control | [3] 98 % of control | [4] 104 % of control | dose: 250.0 mg/kg/injection, schedule: Q01DX001 (ip), vehicle: carboxymethylcellulose (CMC) 96 % of control | dose: 300.0 mg/kg/injection, schedule: Q01DX001 (ip), vehicle: carboxymethylcellulose (CMC) 105 % of control | [5] 98 % of control | dose: 500.0 mg/kg/injection, schedule: Q01DX001 (ip), vehicle: carboxymethylcellulose (CMC) 106 % of control | dose: 600.0 mg/kg/injection, schedule: Q01DX001 (ip), vehicle: carboxymethylcellulose (CMC) 91 % of control | dose: 800.0 mg/kg/injection, schedule: Q01DX001 (ip), vehicle: carboxymethylcellulose (CMC) 96 % of control

CN(C)C(=O)NCc1ccco1
inactive: dose: 12.5 mg/kg/injection, schedule: Q04DX003 (ip), vehicle: saline 97 % of control | [6] 95 % of control | dose: 50.0 mg/kg/injection, schedule: Q04DX003 (ip), vehicle: saline 101 % of control

CC1(C)OC2COC(CN(N=O)C(N)=O)C2O1 (configuration not stated)
inactive: dose: 75.0 mg/kg/injection, schedule: Q01DX001 (ip), vehicle: saline 122 % of control

C[N+](C)(C)Cc1ccccc1
inactive: dose: 1.56 mg/kg/injection, schedule: Q01DX009 (ip), vehicle: saline 102 % of control | dose: 3.12 mg/kg/injection, schedule: Q01DX009 (ip), vehicle: saline 91 % of control | dose: 5.0 mg/kg/injection, schedule: Q01DX001 (ip), vehicle: saline 98 % of control | dose: 6.25 mg/kg/injection, schedule: Q01DX009 (ip), vehicle: saline 117 % of control | dose: 6.5 mg/kg/injection, schedule: Q01DX009 (ip), vehicle: saline 100 % of control | dose: 10.0 mg/kg/injection, schedule: Q01DX001 (ip), vehicle: saline 102 % of control and 109 % of control | dose: 12.0 mg/kg/injection, schedule: Q04DX003 (ip), vehicle: saline 113 % of control | dose: 12.5 mg/kg/injection, schedule: Q01DX009 (ip), vehicle: saline 100 % of control | dose: 20.0 mg/kg/injection, schedule: Q01DX001 (ip), vehicle: saline 98 % of control and 91 % of control | dose: 25.0 mg/kg/injection, schedule: Q01DX009 (ip), vehicle: saline 99 % of control and 107 % of control | [6] 87 % of control | dose: 50.0 mg/kg/injection, schedule: Q01DX009 (ip), vehicle: saline 96 % of control | dose: 100.0 mg/kg/injection, schedule: Q01DX009 (ip), vehicle: saline 96 % of control

CCc1ccc(C(C)=O)o1
inactive: [7] 104 % of control | [8] 108 % of control | [9] 111 % of control

CCCCOc1cc(C(=O)O)ccc1[N+](=O)[O-]
inactive: [10] 97 % of control | dose: 50.0 mg/kg/injection, schedule: Q04DX003 (ip), vehicle: saline with Tween-80 96 % of control | [11] 98 % of control | [12] 91 % of control | [13] 102 % of control

O=C(O)c1ccc2c3c(ccc(C(=O)O)c13)CC2
inactive: [14] 104 % of control

Cc1cc(=O)[nH]c(N/N=C/c2cc(Cl)ccc2O)n1
inactive: [10] 87 % of control

Nc1nc(N)c(N=Nc2ccc(S(=O)(=O)Nc3ccccn3)cc2)cc1N=Nc1ccccc1
inactive: [2] 94 % of control | [4] 102 % of control | [5] 103 % of control

O=C1CN(CN2CCCCC2)C(=O)CN1CN1CCCCC1
inactive: [15] 91 % of control | [16] 109 % of control | [17] 95 % of control | [18] 106 % of control | [19] 90 % of control

c1ccc(CC(Cc2ccccc2)c2nc3ccccc3s2)cc1
inactive: dose: 75.0 mg/kg/injection, schedule: Q01DX009 (ip), vehicle: saline 98 % of control | [20] 98 % of control | dose: 150.0 mg/kg/injection, schedule: Q01DX009 (ip), vehicle: saline 98 % of control | [21] 92 % of control | dose: 300.0 mg/kg/injection, schedule: Q01DX009 (ip), vehicle: saline 95 % of control | [22] 92 % of control

NC(=O)NC(CC(=O)O)C(=O)O (configuration not stated)
inactive: [12] 117 % of control | [13] 101 % of control | dose: 400.0 mg/kg/injection, schedule: Q04DX003 (ip), vehicle: saline with Tween-80 92 % of control

CC(=O)Oc1c(Cl)c(Cl)c(Cl)c(Cl)c1Cl
inactive: dose: 100.0 mg/kg/injection, schedule: Q01DX009 (ip), vehicle: saline sonified 101 % of control | [16] 100 % of control | dose: 200.0 mg/kg/injection, schedule: Q01DX009 (ip), vehicle: saline sonified 107 % of control | [18] 100 % of control | dose: 400.0 mg/kg/injection, schedule: Q01DX009 (ip), vehicle: saline sonified 106 % of control | [19] 93 % of control

CCOC(=O)c1cnc(OCC)nc1Nc1ccccc1Br
inactive: dose: 100.0 mg/kg/injection, schedule: Q01DX001 (ip), vehicle: Klucel (hydroxypropylcellulose) (HPC) 100 % of control | dose: 200.0 mg/kg/injection, schedule: Q01DX001 (ip), vehicle: Klucel (hydroxypropylcellulose) (HPC) 95 % of control | dose: 400.0 mg/kg/injection, schedule: Q01DX001 (ip), vehicle: Klucel (hydroxypropylcellulose) (HPC) 97 % of control

CC(=O)CC(=O)N(C)c1ccccc1
inactive: [1] 104 % of control | [3] 105 % of control

CSc1ncc(CO)c(N2CC2)n1
inactive: dose: 100.0 mg/kg/injection, schedule: Q01DX Z (ip), vehicle: methylcellulose (MC) 87 % of control

CN(C)/C=N/n1cnc2c(ncn2C2OC(CO)C(O)C2O)c1=O (configuration not stated)
inactive: dose: 100.0 mg/kg/injection, schedule: Q01DX003 (ip), vehicle: saline 102 % of control | dose: 200.0 mg/kg/injection, schedule: Q01DX003 (ip), vehicle: saline 94 % of control

CN1C(=O)OC2C3NC(=O)OC3C(O)C(O)C21 (configuration not stated)
inactive: dose: 50.0 mg/kg/injection, schedule: Q01DX001 (ip), vehicle: carboxymethylcellulose (CMC) 109 % of control | [2] 109 % of control | [4] 107 % of control | [5] 102 % of control

O=C(O)c1ccccc1C(=O)NCc1ccco1
inactive: dose: 50.0 mg/kg/injection, schedule: Q01DX001 (ip), vehicle: other 94 % of control | [7] 105 % of control | [8] 105 % of control | [9] 100 % of control

c1ccc([CH2][Pb]([c]2ccccc2)([c]2ccccc2)[c]2ccccc2)cc1
inactive: dose: 25.0 mg/kg/injection, schedule: Q01DX009 (ip), vehicle: saline with Tween-80 93 % of control | [10] 94 % of control | [11] 96 % of control | dose: 200.0 mg/kg/injection, schedule: Q01DX001 (ip), vehicle: saline with Tween-80 108 % of control | dose: 400.0 mg/kg/injection, schedule: Q01DX001 (ip), vehicle: saline with Tween-80 97 % of control

CCOC(C)(C)C
inactive: [14] 97 % of control | dose: 200.0 mg/kg/injection, schedule: Q01DX001 (ip), vehicle: saline 103 % of control | dose: 400.0 mg/kg/injection, schedule: Q01DX001 (ip), vehicle: saline 106 % of control

O=c1nccc[nH]1
inactive: [20] 97 % of control | [21] 97 % of control

Cc1cc(C)c(S(=O)(=O)ON=C2c3ccccc3-c3ccccc32)c(C)c1
inactive: [15] 107 % of control | [16] 105 % of control | [17] 104 % of control | [18] 110 % of control | dose: 400.0 mg/kg/injection, schedule: Q01DX009 (ip), vehicle: Klucel (hydroxypropylcellulose) (HPC) 101 % of control | [19] 97 % of control

OC1OC(CF)C(O)C(O)C1O (configuration not stated)
inactive: [20] 104 % of control | [21] 115 % of control | [22] 118 % of control
